Reference: patent US20230302022A1, “PREVENTING OR MITIGATING CHEMOTHERAPY INDUCED ALOPECIA USING VITAMIN D” (priority 2016, published 2023)
Entries after “also recorded” stand apart in the source; their conditions may differ.

How the values were obtained:
[1] = test system: Long Evans and Sprague Dawley rats; assay: Chemotherapy-induced alopecia (CIA) in the neonatal rat, topical calcitriol formulation; format: in vivo
Protocol: Specifically, Long Evans and Sprague Dawley rats with pups were purchased from Harlan Laboratories, Inc. They were housed and fed according to applicable animal handling rules and regulations. Pups were allowed to acclimate for 48 hours prior to the start of experiments. […] Rats were isolated from their littermates and mother for 6-hour periods of time. Subsequently, the treated area was cleaned with soap and water and pups were returned to their litters. On day 13, rats either received etoposide (1.5 mg/kg daily for 3 days) or cyclophosphamide (CTX) (37.5 mg/kg once) or combination cyclophosphamide (35 mg/kg once) and doxorubicin (2.5 mg/kg daily for 3 days). All chemotherapies were purchased from Sigma and were given intraperitoneally (i.p.) in a total volume of 0.1 mL. Alopecia was recorded 10 days after the last dose of chemotherapy.

chloroleukemia C51 cells = conditions: 0.2 μg pretreatment prior to cyclophosphamide; cited from earlier work
HEKa cells = assay: 2-D gel electrophoresis proteomic analysis of calcitriol-treated HEKa cells; format: cell-based, human; conditions: 0.1 μg/mL calcitriol, 3, 6, 24 hours vs control
Protocol: The cell pellets were then analyzed using proteomic methods, such as 2-D gel and Western blot analysis. […] In all, analysis of about 458 protein spots in the comparative study was performed, comparing the control sample against the 3-, 6-, and 24-hour treatment samples. Six spots showing statistically significant differential changes were identified. These spots were excised, and their protein contents subjected to sequence identification by trypsin digestion and mass spectrometry characterization.

[2] = test system: NIH-3T3 (immortalized fibroblast); assay: Cell growth / viability assay, NIH-3T3; format: cell-based
Protocol: The drug treatment period was usually three days. At the end of the three days, the background OD of the 96-well plate was read at 280 nm, before 20 μL of the “Substrate Cell Titer 96 Aqueous One Solution Reagent” (Promega) was added to each well. […] The net OD increase was calculated by subtracting the pre-substrate OD reading. The impact of the drug on the cells was calculated by comparing the OD at different concentrations in relation to the OD of the control wells (without the drug). The results of the Net OD as a function of drug concentration was plotted and used to determine ED50 values.

patients = assay: Phase I dose-escalation study: safety and tolerability in cancer patients on taxane-based chemotherapy; format: in vivo
Protocol: The dosage will be escalated if the clinical toxicity is declared acceptable (see below). five dose levels will be considered for escalation (10, 20, 40, 60 and 80 μg/mL). Determination of dose limiting toxicity (DLT, defined in section 8.2) will be made during the first 28 days of topical treatment. No intrapatient dose escalation will be performed. […] The dose escalation scheme (Table 8.1) will occur as follows:
If the patient presents with symptoms of hypercalcemia, serum calcium should be determined and treatment should be stopped immediately. Hypercalcemia will be defined using CTCAE version 4.0 grade 3 (or higher), which is defined as serum calcium >12.5-13.5 mg/dL; >3.1-3.4 mmol/L or ionized calcium >1.6-1.8 mmol/L and hospitalization is indicated. For patients with asymptomatic hypercalcemia determined by elevated serum calcium, their ionized calcium levels will first be checked. If the ionized calcium level is in fact elevated, the study drug will be stopped. If the ionized calcium level is normal, the patient will remain on the study and ionized calcium will be followed rather than serum calcium.
Each patient underwent PK analysis, adverse event monitoring, patient self-assessment diaries (1-10 scale), and blinded photographic assessments. […] Toxicity was determined on a weekly basis during Cycle 1 (i.e., the first 28 days of topical agent application) and subsequently every four weeks. Patients were managed with adequate safety (adverse event) monitoring and pharmacokinetic (PK) analysis in order to determine levels of exposure.

[3] = test system: MIAC51 (chloroleukemia cells); assay: Chloroleukemia (MIAC51) in rats: cure / survival under chemotherapy with topical calcitriol; format: in vivo, rat
Protocol: For experiments in which rats were transplanted with chloroleukemia, on Day 5 after birth, rats were randomly divided into three groups of 45 each. All rats received 1×10^5 chloroleukemic cell line MIAC51 (i.p.) in 0.1 mL of serum free (SF) RPMI. MIAC51 were cultured in RPMI 1640 supplemented with L-glutamine and 10% fetal bovine serum at 37° C. in a 5% CO2, 100% humidity incubator. Cells were grown to 50% confluency (1.5×106 mL) collected in 50 mL conical tubes, centrifuged at 600 g×10 min. at room temperature and resuspended in SF-RPMI at a concentration of 1×10^6/mL. Group 1 rats received no further treatment. Group 2 rats received topical vehicle and CTX on day 13. […] Topical applications were performed as described above.
On day 23 after birth, a sample of blood was taken from all rats and differentials performed. Rats with leukemia were sacrificed, rats without leukemia were kept and a second differential performed on day 31, at any point if leukemia was detected, animals were sacrificed by CO2 asphyxiation.
On day 5 after birth all rats received 1×105 MIAC51 intraperitoneally in 0.1 mL of serum free (SF) RPMI. MIAC51 were cultured in RPMI 1640 supplemented with L-glutamine and 10% fetal bovine serum at […] in a 5% CO2, 100% humidity incubator. Cells were grown to 50% confluency (1.5×106 mL) collected in 50 mL conical tubes, centrifuged at 600 g for 10 minutes at room temperature and resuspended in SF-RPMI at a concentration of 1×10^6/mL prior to injection.
[…]

[4] = Long Evans rats, 0.2 μg total dose

## C=C1/C(=C\C=C2/CCC[C@]3(C)[C@@H]([C@H](C)CCCC(C)(C)O)CC[C@@H]23)C[C@@H](O)C[C@@H]1O [Calcitriol, (5Z,7E)-9,10-secocholesta-5,7.10(19Hriene-1 a,33.25-triol]
[1]; 0.1 μg of calcitriol topically for 6 hours, daily for 6 days
  protection from etoposide-induced alopecia: partial localized protection
[1]; 0.3 μg calcitriol topically
  protection from cyclophosphamide-induced alopecia: full body protection
  protection from etoposide-induced alopecia: total body protection
[1]; [4]
  protection from CTX-doxorubicin combination chemotherapy-induced alopecia: protects
  protection from CTX-induced alopecia in rats injected with MIAC51: protects
  protection from cyclophosphamide (CTX)-induced alopecia: protects
[1]; Sprague Dawley rats, topical formulation, two doses
  protection from CIA in rats receiving etoposide: protects from chemotherapy-induced alopecia (CIA) in a dose-dependent manner
[1]; about 0.2 μg (100 μL of 2 μg/mL topical solution)
  protection against CIA in neonatal rat: protective
[1]; rat model
  daily application prior to commencement of chemotherapy required to see any protective effect: at least four days
  protection with 5 days of application prior to chemotherapy: moderate protection
Chloroleukemia C51 cells
  survival rate vs ethanol vehicle: No statistically significant difference in the survival rate
HEKa cells
  Galectin 1 (LGALS1) Response: up at 6 and 24
  Glutathione S-transferase (GST) Response: up at 3, 6, and 24
  Keratin 17 (KR17) Response: down at 24 hours
  S100 A9 (Calprotectin) Response: down at 6 and 24
  S100 A13 Response: up at 6 and 24
[2]
  effect of calcitriol on cell growth: no significant growth promoting or growth inhibiting effects
  effect of calcitriol on the cytotoxic effect of Doxorubicin: did not appear to appreciably alter
patients; 5 μg/mL × 1 mL BID
  AEs Related to Study Drug: Mild Scalp pain (1)
patients; all dose levels
  serious adverse events reported (number): 25
patients; human, in vivo
  dose limiting toxicities (DLTs): No dose limiting toxicities
patients; human, in vivo, 3 months
  serious adverse events unrelated/unlikely to the study drug: 84%
  serious adverse events unrelated/unlikely to the study drug (number): 21
patients; one patient, 40 μg/mL, passing a renal calculi
  serious adverse events possibly related to the study drug (number): 4
patients; up to 80 μg/mL
  maximum tolerated dose (MTD): not detected
[3]; ADM, Paclitaxel and Etoposide, after Two Rounds
  Survival Rate, %: 80%
[3]; CTX and ADM, after Two Rounds
  Survival Rate, %: 50%
[3]; CTX, ADM and ARA-C, after Two Rounds
  Survival Rate, %: 78%
[3]; CTX, Paclitaxel and Etoposide, after Two Rounds
  Survival Rate, %: 83%
[3]; CTX, after Two Rounds of Chemotherapy
  Survival Rate, %: 25%
[3]; Long Evans rats injected with MIAC51, topical calcitriol
  protection of the cancer cells from chemotherapy (cyclophosphamide): does not protect the cancer cells from chemotherapy; also recorded: have not shown protection; also recorded: not protecting the cancer cells
[3]; chloroleukemia induced (MIAC51), calcitriol 1-3 μg/mL study
  effect on the cure rate associated with cyclophosphamide: did not affect the cure rate
[3]; cyclophosphamide and doxorubicin group, cure rate 50-55%
  interference with the cure rate: did not interfere with the cure rate
[3]; cyclophosphamide group, cure rate 20-25%
  interference with the cure rate: did not interfere with the cure rate
[3]; cyclophosphamide, doxorubicin and cytarabine group, cure rate 75-80%
  interference with the cure rate: did not interfere with the cure rate
[3]; cyclophosphamide, paclitaxel and etoposide group, cure rate 78-83%
  interference with the cure rate: did not interfere with the cure rate
[3]; doxorubicin, paclitaxel and etoposide group, cure rate 80-83%
  interference with the cure rate: did not interfere with the cure rate
[3]; number of animals free from leukemia
  effect on the efficacy of the chemotherapy agents: did not affect the efficacy of the chemotherapy agents
